Data published in patent publication US10766888B1, “HMOX1 inducers” (Mitobridge Inc., priority 2019, dated 2020).

Target: T1, Human BACH1 (Homo sapiens, UniProt O14867)
T1 construct: 10×HIS-GP-BACH1(aa179-736)-Thrombin-FLAG; 10xHis (N); GP linker (Gly-Pro) (N); Thrombin cleavage site (C); FLAG (C); host or cells: Sf9 insect cells
T1 sequence (O14867 179-736): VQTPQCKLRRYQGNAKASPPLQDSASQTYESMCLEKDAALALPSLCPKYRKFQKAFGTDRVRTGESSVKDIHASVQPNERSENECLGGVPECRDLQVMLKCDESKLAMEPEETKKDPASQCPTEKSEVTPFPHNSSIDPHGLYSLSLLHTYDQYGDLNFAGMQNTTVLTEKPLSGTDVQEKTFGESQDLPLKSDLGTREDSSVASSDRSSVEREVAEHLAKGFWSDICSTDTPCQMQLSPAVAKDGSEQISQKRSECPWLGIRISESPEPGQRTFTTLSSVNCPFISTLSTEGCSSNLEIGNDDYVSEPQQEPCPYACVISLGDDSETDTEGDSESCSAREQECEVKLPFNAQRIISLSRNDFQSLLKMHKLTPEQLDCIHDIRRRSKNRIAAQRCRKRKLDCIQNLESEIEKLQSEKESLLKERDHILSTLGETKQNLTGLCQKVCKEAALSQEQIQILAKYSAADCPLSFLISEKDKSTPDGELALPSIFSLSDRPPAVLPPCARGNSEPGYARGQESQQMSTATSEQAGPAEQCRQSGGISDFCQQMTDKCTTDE
Assay: Microscale thermophoresis (MST) assay / Bach 1 binding assay
Conditions: 10 nM fluorescently labeled BACH1(aa179-736), 25° C.
Procedure: Example 146. Microscale Thermophoresis (MST) Assay/Bach 1 Binding Assay
Outline of Protein Expression/Production
Human BACH1 (construct-ID: 10×HIS-GP-BACH1(aa179-736)-Thrombin-FLAG) was expressed in Sf9 insect cells. Protein purification was performed using affinity chromatography, followed by size-exclusion chromatography. Quality of resulting protein was judged using SDS-PAGE analysis.
The MST technology is based on measurement of protein movement along a temperature gradient. Thereby, fluorescently labeled protein is loaded into capillaries, where an infrared laser heats a small volume. Before and during heating, fluorescent intensity is measured at the site of irradiation and the loss of fluorescence in the IR laser focus is quantified.
Two major factors contribute to change of fluorescence signal. First of all, the so-called TRIC (Temperature Related Intensity Change) effect is caused by the temperature-dependency of fluorophore's quantum yield. Herein, the extent of the temperature dependence depends on the chemical environment, which may be changed by the binding of a ligand (e.g. compound, peptide) to the target. Moreover, Kd value between ligand and target can depend on temperature. Second, thermophoresis, which is defined as movement of fluorescent molecules along temperature gradient, is a major contributor to change of fluorescence. Hereby, protein movement along the gradient depends on hydrodynamic radius, charge and hydration shell. These properties can change upon association of the labeled protein with another species, e.g. compound. Thereby, MST detects the differences in protein movement with increasing ligand concentration: from this, the fraction of ligand bound protein and a Kd value can be determined.
For Kd determination of compounds binding BACH1, the following protocol was applied: 10×HIS-GP-BACH1(aa179-736)-Thrombin-FLAG (expressed and purified at Proteros) was fluorescently labeled via its lysine-residues (2nd gen NHS-NT.647 dye).
Experiments were performed using the experimental device Monolith NT.115 Pico, NanoTemper Technologies, with MST power set to medium and excitation power set to 2% at a reaction temperature of 25° C.
10 nM fluorescently labeled BACH1 was applied to reaction buffer containing 50 mM HEPES pH 8.0, 100 mM NaCl, 5% glycerol, 0.05% Tween20 and 1 mM DTT in a reaction volume of 8 μL using Monolith NT.115 Premium Capillaries. Compounds were applied at a maximal concentration of 103 μM with 15 subsequent factor 2 dilutions.

SMILES | Kd
COCCNC(=O)c1ccc2c(c1)nc(Nc1nc3ccc(OCCOC)cc3o1)n2C [Example 56, 2-((6-(2-methoxyethoxy)benzo[d]oxazol-2-yl)amino)-N-(2-methoxyethyl)-1-methyl-1H-benzo[d]imidazole-5-carboxamide] | 0.25 µM
Cn1c(Nc2nc3ccccc3o2)nc2cc(C(=O)NCCOCCO)ccc21 [Example 17, 2-(benzo[d]oxazol-2-ylamino)-N-(2-(2-hydroxyethoxy)ethyl)-1-methyl-1H-benzo[d]imidazole-5-carboxamide] | 0.25 µM
